Test [1] deals with T1, Protein arginine N-methyltransferase 5 (Homo sapiens, UniProt O14744). The test can be described thus: Inhibition of PRMT5 human PRMT5 using Biotinylated H4 derived peptide and [3H]-SAM as substrate by radioactive methylation assay.
Test [2] has as its system A-375. Put plainly: Antiproliferation activity against human A-375 cells assessed as cell growth inhibition. The format is functional, cell-based.
The target in test [3] is T1, Protein arginine N-methyltransferase 5. The test can be described thus: Inhibition of PRMT5 (unknown origin) assessed as enzymatic activity by AlphaLISA assay. In general terms: In Alpha technology, singlet oxygen from a donor bead excites a nearby acceptor bead.
The subject of test [4] is A-375. Put plainly: Anticancer activity against human A-375 cells in xenograft model assessed as tumor growth inhibition at 10 mg/kg, qd on a 4 day-on/3 day-off schedule for 26 days relative to control. The format is functional. The settings on record: A-375, 624 h, time 26 day, read-out: TGI.
A short description of test [5]: Inhibition of Trypanosoma brucei PRMT7 by fluorescence-based SAHH-coupled assay.
The target in test [6] is T2, Protein arginine N-methyltransferase 1 (Homo sapiens, UniProt Q99873). The test can be described thus: Inhibition of human PRMT1 by fluorescence-based SAHH-coupled assay.
T2 sequence (Q99873 whole entry): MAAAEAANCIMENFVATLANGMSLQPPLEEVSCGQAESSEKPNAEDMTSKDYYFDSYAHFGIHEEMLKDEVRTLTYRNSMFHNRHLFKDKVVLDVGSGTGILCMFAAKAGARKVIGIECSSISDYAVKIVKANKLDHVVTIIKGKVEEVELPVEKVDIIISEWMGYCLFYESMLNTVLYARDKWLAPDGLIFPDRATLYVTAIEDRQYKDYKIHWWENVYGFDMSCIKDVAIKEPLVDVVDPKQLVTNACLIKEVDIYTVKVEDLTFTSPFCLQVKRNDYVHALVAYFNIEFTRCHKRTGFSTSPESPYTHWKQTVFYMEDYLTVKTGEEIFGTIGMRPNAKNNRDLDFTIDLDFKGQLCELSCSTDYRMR
For test [7], the target named is T1, Protein arginine N-methyltransferase 5. The test can be described thus: Inhibition of human PRMT5 using H4R3 S1ac and [3H]-SAM as substrate by AlphaLISA assay.
The target is the same in test [8]. Put plainly: Inhibition of PRMT5 (unknown origin) by AlphaLISA assay.
For test [9] the target is unchanged. Put plainly: Inhibition of PRMT5 human PRMT5 using [3H]-SAM as substrate by radioactive methylation assay.
Test [10] deals with Z-138. Put plainly: Antiproliferative activity against human Z138 cells assessed as cell growth inhibition measured every 4 days upto 8 days by Cell Titer-Glo Luminescent Cell Viability kit method. The format is functional, cell-based.
The target of test [11] is T2, Protein arginine N-methyltransferase 1. The test can be described thus: Inhibition of human PRMT1 using H4R3 S1ac and [3H]-SAM as substrate by AlphaLISA assay.
For test [12], the target named is T1, Protein arginine N-methyltransferase 5. The test can be described thus: Inhibition of human PRMT5 by fluorescence-based SAHH-coupled assay.
Test [13] has as its target T3, Histone-arginine methyltransferase CARM1 (Homo sapiens, UniProt Q86X55).
T3 sequence (Q86X55 whole entry): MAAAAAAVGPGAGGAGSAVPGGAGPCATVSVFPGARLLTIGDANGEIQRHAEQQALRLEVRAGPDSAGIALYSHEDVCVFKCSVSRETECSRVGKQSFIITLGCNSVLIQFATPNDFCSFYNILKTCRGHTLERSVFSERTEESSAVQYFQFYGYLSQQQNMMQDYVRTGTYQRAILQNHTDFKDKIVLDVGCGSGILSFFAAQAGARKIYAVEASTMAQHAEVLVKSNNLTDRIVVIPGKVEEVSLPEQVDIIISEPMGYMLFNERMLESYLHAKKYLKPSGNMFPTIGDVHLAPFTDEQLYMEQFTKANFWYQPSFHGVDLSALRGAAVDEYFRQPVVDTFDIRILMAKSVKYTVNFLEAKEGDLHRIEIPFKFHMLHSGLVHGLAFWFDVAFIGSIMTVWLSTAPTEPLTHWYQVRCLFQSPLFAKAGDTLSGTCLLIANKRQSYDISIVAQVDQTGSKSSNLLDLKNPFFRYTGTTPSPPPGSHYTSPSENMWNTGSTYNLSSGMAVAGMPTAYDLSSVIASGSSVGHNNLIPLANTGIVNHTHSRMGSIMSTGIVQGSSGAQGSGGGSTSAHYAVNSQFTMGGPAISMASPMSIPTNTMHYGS
Put plainly: Inhibition of human PRMT4 by fluorescence-based SAHH-coupled assay.

T1 sequence (O14744 whole entry): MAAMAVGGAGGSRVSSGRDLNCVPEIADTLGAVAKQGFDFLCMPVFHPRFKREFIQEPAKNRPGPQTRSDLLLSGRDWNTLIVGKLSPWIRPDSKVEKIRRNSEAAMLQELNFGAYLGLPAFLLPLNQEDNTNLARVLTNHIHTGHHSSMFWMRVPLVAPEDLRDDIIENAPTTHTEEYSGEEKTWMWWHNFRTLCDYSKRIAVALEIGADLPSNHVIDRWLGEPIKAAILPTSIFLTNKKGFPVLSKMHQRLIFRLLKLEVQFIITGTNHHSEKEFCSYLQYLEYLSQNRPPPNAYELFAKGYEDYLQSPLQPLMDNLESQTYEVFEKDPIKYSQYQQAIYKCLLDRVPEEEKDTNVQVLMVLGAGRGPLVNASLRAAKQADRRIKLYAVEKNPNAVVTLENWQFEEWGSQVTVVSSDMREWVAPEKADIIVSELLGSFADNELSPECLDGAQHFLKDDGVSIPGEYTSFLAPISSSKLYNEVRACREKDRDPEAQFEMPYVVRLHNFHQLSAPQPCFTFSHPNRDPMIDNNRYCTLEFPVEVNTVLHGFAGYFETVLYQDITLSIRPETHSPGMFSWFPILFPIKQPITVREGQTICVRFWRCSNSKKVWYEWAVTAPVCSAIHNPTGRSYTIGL

In the case of `Cc1ccc2[nH]c3c(c2c1)CCCC3NCCCOc1ccc(F)cc1` (centres undefined), in test [1], the IC50 (usually the concentration that inhibits the measured activity by half) came out at 1700 nM. For `Nc1ncnc2c1ccn2[C@@H]1O[C@H]([C@H](O)c2ccccc2)[C@@H](O)[C@H]1O`, the IC50 in [2] amounted to 31.5 nM. As to `COC(=O)c1ccccc1NC(=O)CCN1CCc2ccccc2C1`, in test [3], the IC50 was found to be 34100 nM. With `Nc1ncnc2c1ccn2[C@@H]1O[C@H]([C@H](O)c2ccc(Cl)cc2)[C@@H](O)[C@H]1O`, the inhibition in vivo at 10 mg/kg in test [4] came to 64%. In addition, the IC50 in test [2] turned out to be 10.8 nM. Consider `CCN(CC)CCNC1CCCc2c1[nH]c1ccc(C)cc21` (centres undefined), for which the concentration for half-maximal inhibition (IC50) in test [1] was 5700 nM. Take `C[C@@H]1[C@H](O)[C@@H](CSCCCNC(=N)NCCCC[C@@H](N)C(N)=O)O[C@H]1n1cnc2c(N)ncnc21`: the IC50 in [5] came out at 20000 nM; in test [6], 3000 nM.

The compound `COc1cc(Br)cc(/C=C2\SC(c3ccc(C)cc3)=NC2=O)c1O` gave an IC50 in test [7] of 6600 nM.

With `COc1cccc(/C=N/c2ccc(O)c(-c3nc4cc(C)ccc4o3)c2)c1O`, the IC50 in test [8] is 8100 nM. On the same count and under the same terms, as for `CCOC(=O)c1c(NC(=O)CSc2nnc3c4ccccc4n(CCc4ccccc4)c3n2)sc2c1CCN(C)C2`, the figure is 6500 nM. Still for that read-out and setting: in the case of `CCc1ccc2oc(-c3cc(/N=C/c4cccc(C)c4O)ccc3O)nc2c1` it was 60000 nM.

In the case of `Nc1cccc(-c2cn(CC(O)CN3CCc4ccccc4C3)nn2)c1` (centres undefined), in [9], the IC50 worked out at 34000 nM. With `N=C(N)NCCC[C@H](N)C(=O)NCC(=O)N[C@H](CCNC(=N)NCSC[C@H]1O[C@@H](n2cnc3c(N)ncnc32)[C@H](O)[C@@H]1O)C(N)=O`, the values for the 50% inhibitory concentration (IC50) in test [5] and in test [6] were 590 nM and 1700 nM, respectively. In the case of `COc1ccc(OC)c(NC(=O)CSc2nnc3c4ccccc4c4ccccc4c3n2)c1`, in [8], the IC50 worked out at 27000 nM.

Take `OC(CN1CCc2ccccc2C1)Cn1cc(-c2cccc(NC3CCOCC3)c2)nn1` (centres undefined): the IC50 in test [9] was found to be 2400 nM. Turning to `OC(CN1CCc2ccccc2C1)Cn1cc(-c2cccc(NC3CCC3)c2)nn1` (centres undefined), the half-inhibitory concentration (IC50) in [9] was 720 nM; in test [10] it was 2600 nM. As to `Cc1ccc(C2=NC(=O)/C(=C/c3ccc(O)c(O)c3)S2)cc1`, the IC50 in test [7] was found to be 770 nM; in test [11] it was 10000 nM.

In the case of `C[C@@](O)(c1ccc(Cl)cc1)[C@H]1O[C@@H](n2ccc3c(N)ncnc32)[C@H](O)[C@@H]1O`, the IC50 in test [2] stood at 44 nM. In the case of `O=[N+]([O-])c1cccc(-c2cn(CC(O)CN3CCc4ccccc4C3)nn2)c1` (centres undefined), the IC50 in [9] was 5500 nM. `COC(=O)c1ccccc1NC(=O)CSc1nc2ccc(CO)cc2[nH]1`: the half-inhibitory concentration (IC50) in [1] stood at 330 nM. In [7], `COc1cc(Cl)cc(/C=C2\SC(c3ccc(C)cc3)=NC2=O)c1O` yielded an IC50 of 13900 nM. In the case of `N=C(N)NCCC[C@H](N)C(=O)NCC(=O)N[C@H](CCNC(=N)NCCSC[C@H]1O[C@@H](n2cnc3c(N)ncnc32)[C@H](O)[C@@H]1O)C(N)=O`, the IC50 was found to be 0.42 nM in test [12], 830 nM in test [5], 5900 nM in test [6] and 2.8 nM in test [13].

For the origin of these results see ChEMBL document CHEMBL5247612, “Medicinal chemistry strategies targeting PRMT5 for cancer therapy” (Eur J Med Chem, 2022).
